Type in all cases: biochemical
Assay [1] addresses T1, horseradish peroxidase variant HRP N13D/N57S/N175S/N255D/N268D, produced in E. coli (Armoracia rusticana, UniProt P00433, N205S/N285D/N298D/N43D/N87S).
T1 construct: made in house
As for the experimental part:
(§1) Plant HRP Type VI-A (Cat. No.: P6782) was obtained from Sigma-Aldrich (St. Louis, MO, USA). All HRP variants produced in E. coli consisted of the sequence as set forth in SEQ ID NO: 2 with the indicated mutations unless specified otherwise.
(§2) For measurements with 3,3',5,5'-tetramethylbenzidine (TMB) as substrate, the reaction mixture in each well of the 96-well plate contained a saturating hydrogen peroxide concentration of 1 mM and varying TMB concentrations (20 - 550 µM) in 50 mM phosphate-citrate buffer pH 5 in a final volume of 200 µL. Protein sample (5 µL) was mixed with 175 µl TMB-buffer mixture and the reaction was started with 20 µl hydrogen peroxide solution (10 mM). The increase in absorption was followed at 652 nm for 60s at 30 °C in a Tecan Infinite M200 PRO instrument. The kinetic parameters were calculated using Sigma Plot software (Systat Software INC., San Jose, CA, USA) and an extinction coefficient of ε652 = 39 mM^-1 cm^-1 (see Josephy, et al. "The horseradish peroxidase-catalyzed oxidation of 3, 5, 3', 5'-tetramethylbenzidine. Free radical and charge-transfer complex intermediates." Journal of Biological Chemistry 257.7 (1982): 3669-3675).
(§3) The increase in absorption was followed at 420 nm for 120 s at 30 °C in a Tecan Infinite M200 PRO instrument. The kinetic parameters were calculated using Sigma Plot software (Systat Software INC., San Jose, CA, USA) and an extinction coefficient of ε420 = 36 mM^-1 cm^-1 (see Childs and Bardsley. "The steady-state kinetics of peroxidase with 2, 2'-azino-di-(3-ethyl-benzthiazoline-6-sulphonic acid) as chromogen." Biochemical Journal 145.1 (1975): 93-103).
as §3

The target in assay [2] is T2, horseradish peroxidase variant HRP N13D/N57S/P146Q/N175S/N255D/N268D/N275K (mHRP, SEQ ID NO: 4), produced in E. coli (Armoracia rusticana, UniProt P00433, N205S/N285D/N298D/N305K/N43D/N87S/P176Q).
T2 construct: made in house
T2 sequence (P00433 31-338 N43D/N87S/P176Q/N205S/N285D/N298D/N305K): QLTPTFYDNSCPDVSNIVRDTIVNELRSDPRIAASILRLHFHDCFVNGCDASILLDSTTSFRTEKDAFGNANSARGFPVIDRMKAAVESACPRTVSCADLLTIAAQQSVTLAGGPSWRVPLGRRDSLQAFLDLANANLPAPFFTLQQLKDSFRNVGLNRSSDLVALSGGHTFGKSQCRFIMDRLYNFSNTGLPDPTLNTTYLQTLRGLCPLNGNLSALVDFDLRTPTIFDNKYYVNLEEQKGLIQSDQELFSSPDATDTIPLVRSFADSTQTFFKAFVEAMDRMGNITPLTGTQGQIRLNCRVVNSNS
As for the experimental part:
as §1, §2, §3, §3

Assay [3] addresses T3, horseradish peroxidase, wild-type HRP (rHRP, variant C1A, SEQ ID NO: 2), produced in E. coli (Armoracia rusticana, UniProt P00433).
T3 construct: made in house
T3 sequence (P00433 with tags, fused parts or gaps): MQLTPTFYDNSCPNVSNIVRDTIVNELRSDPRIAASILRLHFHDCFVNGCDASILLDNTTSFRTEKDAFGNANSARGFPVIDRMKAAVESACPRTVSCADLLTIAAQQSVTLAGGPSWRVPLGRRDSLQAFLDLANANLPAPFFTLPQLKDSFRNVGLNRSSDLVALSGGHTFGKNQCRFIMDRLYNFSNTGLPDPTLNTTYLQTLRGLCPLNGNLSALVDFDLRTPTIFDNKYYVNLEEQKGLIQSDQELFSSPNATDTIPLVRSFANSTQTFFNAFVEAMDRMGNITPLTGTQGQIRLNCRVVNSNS
The experiment in a line: Enzyme kinetic parameters, 96-well plate assay. The conditions noted are these: substrate TMB (20 - 550 µM), 1 mM H2O2, 50 mM phosphate-citrate buffer pH 5, 30 °C; Table 6. As for the experimental part: as §1, §2
(§4) The increase in absorption was followed at 420 nm for 120 s at 30 °C in a Tecan Infinite M200 PRO instrument. […]

Assay [4] concerns the target T4, plant-derived HRP (pHRP), Plant HRP Type VI-A, horseradish peroxidase (Armoracia rusticana, UniProt P00433).
T4 construct: The plant-derived enzyme undergoes post-translational modifications, resulting inter alia in a free N-terminus without an appended methionine; purchased Sigma-Aldrich P6782; host or cells: extracted from the plant
T4 sequence (P00433 31-338 limits assumed): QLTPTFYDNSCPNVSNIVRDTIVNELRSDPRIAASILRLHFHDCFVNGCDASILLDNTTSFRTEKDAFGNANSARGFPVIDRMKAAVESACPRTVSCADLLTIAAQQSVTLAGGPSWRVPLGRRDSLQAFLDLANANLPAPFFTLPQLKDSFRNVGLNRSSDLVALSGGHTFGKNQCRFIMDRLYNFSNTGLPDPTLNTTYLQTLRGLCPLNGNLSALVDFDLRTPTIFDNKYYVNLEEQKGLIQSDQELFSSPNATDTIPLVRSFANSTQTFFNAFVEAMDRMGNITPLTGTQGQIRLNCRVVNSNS
Kind of assay: Enzyme kinetic parameters, 96-well plate assay. The settings on record: substrate TMB (20 - 550 µM), 1 mM H2O2, 50 mM phosphate-citrate buffer pH 5, 30 °C; Table 6. The protocol:
as §1, §2, §4

Where [5] appears, read: substrate H2O2 (0.001 - 1 mM), 10 mM ABTS, 50 mM phosphate-citrate buffer pH 5, 30 °C, Table 3.

Where two headings read alike, the source gives them in different places.

T1 sequence (P00433 31-338 N43D/N87S/N205S/N285D/N298D): as the sequence (P00433 31-338 N43D/N87S/P176Q/N205S/N285D/N298D/N305K) above, with Q146P, K275N counted along it

For `OO` [H2O2, hydrogen peroxide], the turnover number (kcat) (as a rule, the number of substrate molecules converted per active site and unit of time at saturation) in assay [1] (setting [5]) was 1152 s⁻¹; in assay [2] (setting [5]), 1344 ± 22 s⁻¹.

Consider `Cc1cc(-c2cc(C)c(N)c(C)c2)cc(C)c1N` [TMB, 3,3',5,5'-tetramethylbenzidine], for which the turnover number (kcat) in assay [1] (substrate TMB (20 - 550 µM), 1 mM H2O2, 50 mM phosphate-citrate buffer pH 5, 30 °C, Table 2) turned out to be 3236 ± 193 s⁻¹; in assay [2] (substrate TMB (20 - 550 µM), 1 mM H2O2, 50 mM phosphate-citrate buffer pH 5, 30 °C, Table 2 (Example 3)), 4342 ± 292 s⁻¹; in assay [2] (substrate TMB (20 - 550 µM), 1 mM H2O2, 50 mM phosphate-citrate buffer pH 5, 30 °C, Table 6 (Example 4)), 4293 ± 171 s⁻¹; in assay [3], 4169 ± 207 s⁻¹; in assay [4], 4343 s⁻¹.

Source of the values: patent publication EP3885436A1, “POLYPEPTIDES WITH PEROXIDASE ACTIVITY” (Technische Universität Wien, priority 2020, dated 2021).
